Measured values: US4231928A, “Antibacterial agents” (priority 1979, dated 1980)
Converted amounts (≈) assume the structure as drawn. Like-named read-outs stand apart in the source and are kept apart here.

Experiments:
Format in all cases: cell-based
[1] = system: S. aureus; assay: Serial twofold agar dilution (Mueller-Hinton agar), S. aureus; settings: Staphylococcus aureus
Description: (§1) The Minimum Inhibitory Concentrations (MIC) for sodium 6-[D-(-)-α-phenyl-α-(7-hydroxy-4-oxo-4H-pyrimido[1,2-b]pyridazin-3-ylcarboxamido)acetamido]penicillanate (BB-P598) and sulbenicillin were determined by the serial twofold agar dilution method using Steers' apparatus on Mueller-Hinton agar plates against 31 test organisms for the primary screening (Table 1) and also against 61 strains of Pseudomonas aeruginosa for the secondary evaluation (Table 2).
(§2) Minimum Inhibitory Concentrations (MIC) for sodium 6-[D-(-)-α-phenyl-α-(7-hydroxy-4-oxo-4H-pyrimido[1,2-b]pyridazin-3-ylcarboxamido)acetamido]pencillanate (BB-P598), sodium 6-[D-(-)-α-(4-hydroxyphenyl)-α-(7-hydroxy-4-oxo-4H-pyrimido[1,2-b]pyridazin-3-ylcarboxamido)acetamido]-penicillanate (BB-P642) and carbenicillin were determined by the serial twofold agar dilution method using Steers' apparatus on Mueller-Hinton agar plates against 31 tests organisms (Table 8) and also against 61 strains of Pseudomonas aeruginosa (Table 9). In terms of mean % relative activity compared with carbenicillin, compounds BB-B598 and BB-P642 were 856% and 1319% as active as carbenicillin against the 61 Pseudomonas strains of Table 9.

[2] = system: E. coli; assay: Serial twofold agar dilution (Mueller-Hinton agar), E. coli; settings: Escherichia coli
Description: as §1, §2

[3] = system: K. pneumoniae; assay: Serial twofold agar dilution (Mueller-Hinton agar), K. pneumoniae; settings: Klebsiella pneumoniae, K. pneumoniae A9977, Table 1, read-out: MIC
Description: as §1, §2

[4] = system: Klebsiella sp.; assay: Serial twofold agar dilution (Mueller-Hinton agar), Klebsiella sp.
Description: as §1, §2

[5] = system: E. cloacae; assay: Serial twofold agar dilution (Mueller-Hinton agar), E. cloacae; settings: Enterobacter cloacae
Description: as §1, §2

[6] = system: P. mirabilis; assay: Serial twofold agar dilution (Mueller-Hinton agar), P. mirabilis; settings: Proteus mirabilis, P. mirabilis A9900; Mueller-Hinton agar; Table 1; read-out: MIC
Description: as §1, §2

[7] = system: P. vulgaris; assay: Serial twofold agar dilution (Mueller-Hinton agar), P. vulgaris; settings: Proteus vulgaris, P. vulgaris A9539, Table 1, read-out: MIC
Description: as §1, §2

[8] = system: P. morganii; assay: Serial twofold agar dilution (Mueller-Hinton agar), P. morganii; settings: Morganella morganii, P. morganii A9553, Table 1, read-out: MIC
Description: as §1, §2

[9] = system: S. enteritidis; assay: Serial twofold agar dilution (Mueller-Hinton agar), S. enteritidis; settings: Salmonella enterica, S. enteritidis A9531, Table 1, read-out: MIC
Description: as §1, §2

[10] = system: S. marcescens; assay: Serial twofold agar dilution (Mueller-Hinton agar), S. marcescens; settings: Serratia marcescens, S. marcescens A20019, Table 1
Description: as §1, §2

[11] = system: Pseudomonas aeruginosa; assay: Serial twofold agar dilution (Mueller-Hinton agar), P. aeruginosa; settings: Pseudomonas aeruginosa
Description: as §1, §2

[12] = system: Pseudomonas sp.; assay: Serial twofold agar dilution (Mueller-Hinton agar), Pseudomonas sp.; settings: Pseudomonas sp. A20358, Table 1, read-out: MIC
Description: as §1, §2

**Q.** What does the source list for `CC1(C)S[C@@H]2[C@H](NC(=O)C(c3ccccc3)S(=O)(=O)O)C(=O)N2[C@H]1C(=O)O` (stereo partly shown) [Sulbenicillin, reference compound]?
**A.** MIC ([1]; S. aureus BX-1633 A15097, Table 1, read-out: MIC): 12.5 mg/L (≈ 30.2 µM); MIC ([1]; S. aureus BX-1633 A20701, Table 1, read-out: MIC): 50 mg/L (≈ 121 µM); MIC ([1]; S. aureus Smith A9537, Table 1, read-out: MIC): 1.6 mg/L (≈ 3.86 µM); MIC ([2]; E. coli Juhl A9435, Table 1): 12.5 mg/L (≈ 30.2 µM); MIC ([2]; E. coli Juhl A9844, Table 1, read-out: MIC): 0.8 mg/L (≈ 1.93 µM); MIC ([2]; E. coli Juhl A15119, Table 1, read-out: MIC): 3.1 mg/L (≈ 7.48 µM); MIC ([2]; E. coli Juhl A20366, Table 1, read-out: MIC): > 100 mg/L; MIC ([2]; E. coli Juhl A20520, Table 1, read-out: MIC): 6.3 mg/L (≈ 15.2 µM); MIC ([2]; E. coli Juhl A20664, Table 1, read-out: MIC): 3.1 mg/L (≈ 7.48 µM); MIC ([2]; E. coli Juhl A20732, Table 1, read-out: MIC): > 100 mg/L; MIC ([2]; E. coli Juhl A20898, Table 1, read-out: MIC): > 100 mg/L; MIC ([2]; E. coli NIHJ, Table 1, read-out: MIC): 0.8 mg/L (≈ 1.93 µM); MIC [3]: 3.1 mg/L (≈ 7.48 µM); MIC [4]: 12.5 mg/L (≈ 30.2 µM); MIC ([5]; E. cloacae A9656, Table 1): 6.3 mg/L (≈ 15.2 µM); MIC ([5]; E. cloacae A9657, Table 1): 100 mg/L (≈ 241 µM); MIC ([5]; E. cloacae A9659, Table 1): 12.5 mg/L (≈ 30.2 µM); MIC [6]: 0.8 mg/L (≈ 1.93 µM); MIC [7]: 1.6 mg/L (≈ 3.86 µM); MIC [8]: > 100 mg/L; MIC [9]: 1.6 mg/L (≈ 3.86 µM); MIC [10]: 6.3 mg/L (≈ 15.2 µM); MIC ([11]; 61 strains of P. aeruginosa, Table 2, read-out: Geometric mean of MIC): 31.4 mg/L (≈ 75.8 µM); MIC ([11]; GN315, Pa-27 GN315 A21294, Mueller-Hinton agar, Table 2, read-out: MIC): 50 mg/L (≈ 121 µM); MIC ([11]; GN4925, Pa-45 GN4925, Mueller-Hinton agar, Table 2, read-out: MIC): 50 mg/L (≈ 121 µM); MIC ([11]; P. aeruginosa A9843, Mueller-Hinton agar, Table 1, read-out: MIC): 25 mg/L (≈ 60.3 µM); MIC ([11]; P. aeruginosa A9930, Mueller-Hinton agar, Table 1, read-out: MIC): 12.5 mg/L (≈ 30.2 µM); MIC ([11]; P. aeruginosa A15150, Mueller-Hinton agar, Table 1, read-out: MIC): 12.5 mg/L (≈ 30.2 µM); MIC ([11]; P. aeruginosa A20229, Mueller-Hinton agar, Table 1, read-out: MIC): 12.5 mg/L (≈ 30.2 µM); MIC ([11]; P. aeruginosa A20717, Mueller-Hinton agar, Table 1, read-out: MIC): 100 mg/L (≈ 241 µM); MIC ([11]; Pa-2 VA A9923, Mueller-Hinton agar, Table 2, read-out: MIC): 12.5 mg/L (≈ 30.2 µM); MIC ([11]; Pa-3 1449VA A9930, Mueller-Hinton agar, Table 2, read-out: MIC): 6.3 mg/L (≈ 15.2 µM); MIC ([11]; Pa-4 H9 D113 A21295, Mueller-Hinton agar, Table 2, read-out: MIC): 25 mg/L (≈ 60.3 µM); MIC ([11]; Pa-6 No. 5 A15194, Mueller-Hinton agar, Table 2, read-out: MIC): > 100 mg/L; MIC ([11]; Pa-10 A20479, Mueller-Hinton agar, Table 2, read-out: MIC): > 100 mg/L; MIC ([11]; Pa-12 A20653, Mueller-Hinton agar, Table 2, read-out: MIC): 50 mg/L (≈ 121 µM); MIC ([11]; Pa-15 A20717, Mueller-Hinton agar, Table 2, read-out: MIC): 100 mg/L (≈ 241 µM); MIC ([11]; Pa-16 #130 A20718, Mueller-Hinton agar, Table 2, read-out: MIC): 6.3 mg/L (≈ 15.2 µM); MIC ([11]; Pa-17 H6 D114, Mueller-Hinton agar, Table 2, read-out: MIC): 12.5 mg/L (≈ 30.2 µM); MIC ([11]; Pa-18 H8 D121, Mueller-Hinton agar, Table 2, read-out: MIC): 12.5 mg/L (≈ 30.2 µM); MIC ([11]; Pa-19 A20229, Mueller-Hinton agar, Table 2, read-out: MIC): 12.5 mg/L (≈ 30.2 µM); MIC ([11]; Pa-23 A20741, Mueller-Hinton agar, Table 2, read-out: MIC): 50 mg/L (≈ 121 µM); MIC ([11]; Pa-24 A20896, Mueller-Hinton agar, Table 2, read-out: MIC): 100 mg/L (≈ 241 µM); MIC ([11]; Pa-25 A20897, Mueller-Hinton agar, Table 2, read-out: MIC): 12.5 mg/L (≈ 30.2 µM); MIC ([11]; Pa-26 Ps32, Mueller-Hinton agar, Table 2, read-out: MIC): 12.5 mg/L (≈ 30.2 µM); MIC ([11]; Pa-28 CPH10527/72, Mueller-Hinton agar, Table 2, read-out: MIC): 50 mg/L (≈ 121 µM); MIC ([11]; Pa-29 D122, Mueller-Hinton agar, Table 2, read-out: MIC): 25 mg/L (≈ 60.3 µM); MIC ([11]; Pa-31 A20594, Mueller-Hinton agar, Table 2, read-out: MIC): 12.5 mg/L (≈ 30.2 µM); MIC ([11]; Pa-33 A20598, Mueller-Hinton agar, Table 2, read-out: MIC): 100 mg/L (≈ 241 µM); MIC ([11]; Pa-35, Mueller-Hinton agar, Table 2, read-out: MIC): 100 mg/L (≈ 241 µM); MIC ([11]; Pa-36, Mueller-Hinton agar, Table 2, read-out: MIC): 1.6 mg/L (≈ 3.86 µM); MIC ([11]; Pa-37 A20130, Mueller-Hinton agar, Table 2, read-out: MIC): 50 mg/L (≈ 121 µM); MIC ([11]; Pa-38 A20349, Mueller-Hinton agar, Table 2, read-out: MIC): 50 mg/L (≈ 121 µM); MIC ([11]; Pa-42 A21229, Mueller-Hinton agar, Table 2, read-out: MIC): > 100 mg/L; MIC ([11]; Pa-43 A21233, Mueller-Hinton agar, Table 2, read-out: MIC): 50 mg/L (≈ 121 µM); MIC ([11]; Pa-44 A21274, Mueller-Hinton agar, Table 2, read-out: MIC): 50 mg/L (≈ 121 µM); MIC ([11]; Pa-54 A20128, Mueller-Hinton agar, Table 2, read-out: MIC): 50 mg/L (≈ 121 µM); MIC ([11]; Pa-58 A20557, Mueller-Hinton agar, Table 2, read-out: MIC): 50 mg/L (≈ 121 µM); MIC ([11]; Pa-59 A20574, Mueller-Hinton agar, Table 2, read-out: MIC): 50 mg/L (≈ 121 µM); MIC ([11]; Pa-60 A20602, Mueller-Hinton agar, Table 2, read-out: MIC): 12.5 mg/L (≈ 30.2 µM); MIC ([11]; Pa-61 A20726, Mueller-Hinton agar, Table 2, read-out: MIC): 50 mg/L (≈ 121 µM); MIC ([11]; Pa-62 A21213, Mueller-Hinton agar, Table 2, read-out: MIC): > 100 mg/L; MIC ([11]; Pa-67 A21509, Mueller-Hinton agar, Table 2, read-out: MIC): 50 mg/L (≈ 121 µM); MIC ([11]; Pa-68 A21510, Mueller-Hinton agar, Table 2, read-out: MIC): 50 mg/L (≈ 121 µM); MIC ([11]; Pa-69 A21587, Mueller-Hinton agar, Table 2, read-out: MIC): 50 mg/L (≈ 121 µM); MIC ([11]; Pa-70 K-Ps102 (CR-102), Mueller-Hinton agar, Table 2, read-out: MIC): 25 mg/L (≈ 60.3 µM); MIC [12]: 3.1 mg/L (≈ 7.48 µM)
